Reference: patent publication US12139520B2 (priority 2020, dated 2024)
Bridge positions count the residues as written; N and C are the ends. Square brackets hold non-standard residues; d marks the D form. Peptide text beside a SMILES is read from it. Hyp = O=C(O)[C@@H]1C[C@@H](O)CN1; Cit = NC(=O)NCCC[C@H](N)C(=O)O

How the values were obtained:
[1] = Physical stability of peptide analogues (Thioflavin T fibrillation); format: physicochemical; conditions: maximum ThT signal normalized between hAMY maximum and buffer background; 40° C., shaking, four days; pH 7 per table title
Outline: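 Peptides in 50 mM sodium acetate pH 4 or 50 mM sodium phosphate pH 7 were preincubated 1 h, mixed with 4 μM ThT, held at 40° C with 700 rpm shaking before each read. Fluorescence (ex 450/em 480 nm) every 10 min for four days; LOESS-smoothed maximum signal normalized in percent between hAMY and buffer.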

hAMY3 receptor = target: T1, hAMY3 receptor (Homo sapiens, UniProt O60896+P30988); assay: cAMP assay for in vitro receptor activation, hAMY3-R; format: cell-based; conditions: cAMP assay, hAMY3 receptor; read-out: hAMY3R EC50
T1 sequence (P30988 25-474): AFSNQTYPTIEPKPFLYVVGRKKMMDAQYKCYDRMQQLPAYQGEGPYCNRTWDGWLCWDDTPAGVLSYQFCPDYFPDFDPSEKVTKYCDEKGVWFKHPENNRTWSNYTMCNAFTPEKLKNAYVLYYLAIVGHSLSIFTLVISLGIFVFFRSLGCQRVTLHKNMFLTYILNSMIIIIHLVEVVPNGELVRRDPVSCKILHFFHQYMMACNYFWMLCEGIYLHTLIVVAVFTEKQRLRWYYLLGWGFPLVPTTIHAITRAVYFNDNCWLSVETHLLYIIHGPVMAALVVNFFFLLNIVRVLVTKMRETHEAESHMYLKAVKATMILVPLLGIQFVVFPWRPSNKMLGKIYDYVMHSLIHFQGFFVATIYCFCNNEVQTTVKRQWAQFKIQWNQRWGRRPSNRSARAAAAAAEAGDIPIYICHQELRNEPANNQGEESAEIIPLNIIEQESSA
T1 sequence (O60896 24-148 partner): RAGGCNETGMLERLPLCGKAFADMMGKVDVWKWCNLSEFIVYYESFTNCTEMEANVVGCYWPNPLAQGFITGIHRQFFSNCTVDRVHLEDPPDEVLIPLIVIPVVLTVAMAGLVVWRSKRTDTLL
Outline: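 Thawed cells from a sub-cloned monoclonal hAMY3-overexpressing line are plated in DPBS containing 0.05% casein and 0.5 mM IBMX. Test compounds are added immediately at graded doses for 30 min at room temperature. Reagents for cAMP detection are then added, and TR-FRET is recorded after one hour.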

| Compound | Max ThT signal (%) [1] | EC50 (hAMY3 receptor) |
| --- | --- | --- |
| CC[C@H](C)[C@H](NC(=O)[C@H](CCC(N)=O)NC(=O)[C@H](Cc1c[nH]cn1)NC(=O)[C@H](C)NC(=O)[C@H](CC(C)C)NC(=O)[C@H](CCCNC(=N)N)NC(=O)[C@H](CCC(N)=O)NC(=O)[C@@H](NC(=O)[C@@H](NC(=O)[C@@H]1CSSC[C@H](NC(=O)CN)C(=O)N[C@@H](CCCNC(=N)N)C(=O)N[C@@H]([C@@H](C)O)C(=O)NCC(=O)N[C@@H]([C@@H](C)O)C(=O)N1)[C@@H](C)O)C(C)C)C(=O)N[C@@H](Cc1ccc(O)cc1)C(=O)N[C@@H](CCC(N)=O)C(=O)N[C@@H](Cc1ccccc1)C(=O)N[C@H](C(=O)N[C@@H](CC(=O)O)C(=O)N[C@@H](CCCCN)C(=O)N[C@@H](CC(=O)O)C(=O)N[C@@H](CCCCN)C(=O)N[C@@H](CC(=O)O)C(=O)N[C@@H](CC(N)=O)C(=O)N[C@H](C(=O)N[C@@H](C)C(=O)N1CCC[C@H]1C(=O)N[C@@H](CCCNC(=N)N)C(=O)N[C@H](C(=O)N[C@@H](CC(N)=O)C(=O)N[C@H](C(=O)NCC(=O)N1CCC[C@H]1C(=O)N[C@@H](CCC(N)=O)C(=O)NCC(=O)N1C[C@H](O)C[C@H]1C(N)=O)C(C)C)[C@@H](C)O)C(C)C)[C@@H](C)O [compound 49] (H-GCRTGTCTVQRLAHQIYQFTDKDKDNVAPRTNVGPQG[Hyp]-NH2; disulfide 2-7; N-terminus assumed) | 3.200% | 0.011 nM |
| CC[C@H](C)[C@H](NC(=O)[C@H](CCC(N)=O)NC(=O)[C@H](Cc1c[nH]cn1)NC(=O)[C@H](C)NC(=O)[C@H](CC(C)C)NC(=O)[C@H](CCCNC(N)=O)NC(=O)[C@H](CCC(N)=O)NC(=O)[C@@H](NC(=O)[C@@H](NC(=O)[C@@H]1CSSC[C@H](NC(=O)[C@@H](N)CCCCN)C(=O)N[C@@H](CC(N)=O)C(=O)N[C@@H]([C@@H](C)O)C(=O)N[C@@H](C)C(=O)N[C@@H]([C@@H](C)O)C(=O)N1)[C@@H](C)O)C(C)C)C(=O)N[C@@H](Cc1ccc(O)cc1)C(=O)N[C@@H](CCC(N)=O)C(=O)N[C@@H](Cc1ccccc1)C(=O)N[C@H](C(=O)N[C@@H](CC(=O)O)C(=O)N[C@@H](CCCCN)C(=O)N[C@@H](CC(=O)O)C(=O)N[C@@H](CCCCN)C(=O)N[C@@H](CC(=O)O)C(=O)N[C@@H](CC(N)=O)C(=O)N[C@H](C(=O)N[C@@H](C)C(=O)N1CCC[C@H]1C(=O)N[C@@H](CCCNC(=N)N)C(=O)N[C@H](C(=O)N[C@@H](CCCCN)C(=O)N[C@H](C(=O)NCC(=O)N[C@@H](CO)C(=O)N[C@@H](CC(N)=O)C(=O)NCC(=O)N1C[C@H](O)C[C@H]1C(N)=O)C(C)C)[C@@H](C)O)C(C)C)[C@@H](C)O [compound 248] (H-KCNTATCTVQ[Cit]LAHQIYQFTDKDKDNVAPRTKVGSNG[Hyp]-NH2; disulfide 2-7; N-terminus assumed) | 13.600% | 0.027 nM |
| CC[C@H](C)[C@H](NC(=O)[C@H](CCCCN)NC(=O)[C@@H](NC(=O)[C@H](CCCNC(=N)N)NC(=O)[C@@H]1CCCN1C(=O)[C@H](C)NC(=O)[C@@H](NC(=O)[C@H](CC(N)=O)NC(=O)[C@H](CC(=O)O)NC(=O)[C@H](CCCCN)NC(=O)[C@H](CC(=O)O)NC(=O)[C@H](CCCCN)NC(=O)[C@H](CC(=O)O)NC(=O)[C@@H](NC(=O)[C@H](Cc1ccccc1)NC(=O)[C@H](CCC(N)=O)NC(=O)[C@H](Cc1ccc(O)cc1)NC(=O)[C@@H](NC(=O)[C@H](CCC(N)=O)NC(=O)[C@H](Cc1c[nH]cn1)NC(=O)[C@H](C)NC(=O)[C@H](CC(C)C)NC(=O)[C@H](Cc1c[nH]c2ccccc12)NC(=O)[C@H](CCC(N)=O)NC(=O)[C@@H](NC(=O)[C@@H](NC(=O)[C@@H]1CSSC[C@H](NC(=O)CN)C(=O)N[C@@H](CCCNC(=N)N)C(=O)N[C@@H](Cc2ccccc2)C(=O)NCC(=O)N[C@@H]([C@@H](C)O)C(=O)N1)[C@@H](C)O)C(C)C)[C@@H](C)CC)[C@@H](C)O)C(C)C)[C@@H](C)O)C(=O)NCC(=O)N1CCC[C@H]1C(=O)N[C@@H](CC(N)=O)C(=O)NCC(=O)N1C[C@H](O)C[C@H]1C(N)=O [compound 343] (H-GCRFGTCTVQWLAHQIYQFTDKDKDNVAPRTKIGPNG[Hyp]-NH2; disulfide 2-7; N-terminus assumed) | 24.850% | 0.017 nM |
| CC[C@H](C)[C@H](NC(=O)[C@H](CCCCN)NC(=O)[C@@H](NC(=O)[C@H](CCCNC(=N)N)NC(=O)[C@@H]1CCCN1C(=O)[C@H](C)NC(=O)[C@@H](NC(=O)[C@H](CC(N)=O)NC(=O)[C@H](CC(=O)O)NC(=O)[C@H](CCCCN)NC(=O)[C@H](CC(=O)O)NC(=O)[C@H](CCCCN)NC(=O)[C@H](CC(=O)O)NC(=O)[C@@H](NC(=O)[C@H](Cc1ccccc1)NC(=O)[C@H](CCC(N)=O)NC(=O)[C@H](Cc1ccc(O)cc1)NC(=O)[C@@H](NC(=O)[C@H](CCC(N)=O)NC(=O)[C@H](Cc1c[nH]cn1)NC(=O)[C@H](C)NC(=O)[C@H](CC(C)C)NC(=O)[C@H](Cc1c[nH]c2ccccc12)NC(=O)[C@H](CCC(N)=O)NC(=O)[C@@H](NC(=O)[C@@H](NC(=O)[C@@H]1CSSC[C@H](NC(=O)CN)C(=O)N[C@@H](CCCNC(=N)N)C(=O)N[C@@H](Cc2ccccc2)C(=O)NCC(=O)N[C@@H]([C@@H](C)O)C(=O)N1)[C@@H](C)O)C(C)C)[C@@H](C)CC)[C@@H](C)O)C(C)C)[C@@H](C)O)C(=O)NCC(=O)N1CCC[C@H]1C(=O)N[C@@H](CCC(N)=O)C(=O)NCC(=O)N1C[C@H](O)C[C@H]1C(N)=O [compound 336] (H-GCRFGTCTVQWLAHQIYQFTDKDKDNVAPRTKIGPQG[Hyp]-NH2; disulfide 2-7; N-terminus assumed) | 18.700% | 0.029 nM |
| CC[C@H](C)[C@H](NC(=O)[C@H](CCC(N)=O)NC(=O)[C@H](Cc1c[nH]cn1)NC(=O)[C@H](C)NC(=O)[C@H](CC(C)C)NC(=O)[C@H](CCCNC(=N)N)NC(=O)[C@H](CCC(N)=O)NC(=O)[C@@H](NC(=O)[C@@H](NC(=O)[C@@H]1CSSC[C@H](NC(=O)CN)C(=O)N[C@@H](CCCNC(=N)N)C(=O)N[C@@H]([C@@H](C)O)C(=O)NCC(=O)N[C@@H]([C@@H](C)O)C(=O)N1)[C@@H](C)O)C(C)C)C(=O)N[C@@H](Cc1ccc(O)cc1)C(=O)N[C@@H](CCC(N)=O)C(=O)N[C@@H](Cc1ccccc1)C(=O)N[C@H](C(=O)N[C@@H](CC(=O)O)C(=O)N[C@@H](CCCCN)C(=O)N[C@@H](CC(=O)O)C(=O)N[C@@H](CCCCN)C(=O)N[C@@H](CC(=O)O)C(=O)N[C@@H](CC(N)=O)C(=O)N[C@H](C(=O)N[C@@H](C)C(=O)N1CCC[C@H]1C(=O)N[C@@H](CCCNC(=N)N)C(=O)N[C@@H](CO)C(=O)N[C@@H](CCCCN)C(=O)N[C@H](C(=O)NCC(=O)N1CCC[C@H]1C(=O)N[C@@H](CC(N)=O)C(=O)NCC(=O)N1C[C@H](O)C[C@H]1C(N)=O)C(C)C)C(C)C)[C@@H](C)O [compound 139] (H-GCRTGTCTVQRLAHQIYQFTDKDKDNVAPRSKVGPNG[Hyp]-NH2; disulfide 2-7; N-terminus assumed) | 4.800% | 0.035 nM |
| CC[C@H](C)[C@H](NC(=O)[C@H](CCCCN)NC(=O)[C@H](CO)NC(=O)[C@H](CCCNC(=N)N)NC(=O)[C@@H]1CCCN1C(=O)[C@H](C)NC(=O)[C@@H](NC(=O)[C@H](CC(N)=O)NC(=O)[C@H](CC(=O)O)NC(=O)[C@H](CCCCN)NC(=O)[C@H](CC(=O)O)NC(=O)[C@H](CCCCN)NC(=O)[C@H](CC(=O)O)NC(=O)[C@@H](NC(=O)[C@H](Cc1ccccc1)NC(=O)[C@H](CCC(N)=O)NC(=O)[C@H](Cc1ccc(O)cc1)NC(=O)[C@@H](NC(=O)[C@H](CCC(N)=O)NC(=O)[C@H](Cc1c[nH]cn1)NC(=O)[C@H](C)NC(=O)[C@H](CC(C)C)NC(=O)[C@H](CCCNC(=N)N)NC(=O)[C@H](CCC(N)=O)NC(=O)[C@@H](NC(=O)[C@@H](NC(=O)[C@@H]1CSSC[C@H](NC(=O)CN)C(=O)N[C@@H](CCCNC(=N)N)C(=O)N[C@@H](Cc2ccccc2)C(=O)NCC(=O)N[C@@H]([C@@H](C)O)C(=O)N1)[C@@H](C)O)C(C)C)[C@@H](C)CC)[C@@H](C)O)C(C)C)C(=O)NCC(=O)N1CCC[C@H]1C(=O)N[C@@H](CCC(N)=O)C(=O)NCC(=O)N[C@@H](Cc1ccc(O)cc1)C(N)=O [compound 387] (H-GCRFGTCTVQRLAHQIYQFTDKDKDNVAPRSKIGPQGY-NH2; disulfide 2-7; N-terminus assumed) | 14.300% | 0.04 nM |
